# Measured values reported in the supplement of paper PMC8967900.
# What was measured:
# Test in all cases: selective drug sensitivity score (sDSS, relative to normal bone marrow) (sDSS (score)); higher = more potent and effective on the cell line relative to normal bone marrow cells
# Settings in all cases: 72 h
# P30-OHKUBO = system: P30-OHKUBO
# COG-LL-355h = system: COG-LL-355h
# TMD5 = system: TMD5
# TANOUE = system: TANOUE
# MN-60 = system: MN-60
# COG-LL-319h = system: COG-LL-319h
# CCRF-HSB2 = system: CCRF-HSB2
# MOLT-16 = system: MOLT-16
# PEER = system: PEER
# LC4-1 = system: LC4-1
# SUP-B15 = system: SUP-B15
# ALL-PO = system: ALL-PO
# JURKAT = system: JURKAT
# KASUMI-9 = system: KASUMI-9
# HAL-01 = system: HAL-01
# SEM cells = system: SEM cells
# COG-LL-317 = system: COG-LL-317
# MHH-CALL-4 = system: MHH-CALL-4
# KOPN-8 = system: KOPN-8
# 697 = system: 697
# 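Note: ALL cell lines in 384-well plates, five doses spanning 10,000-fold, each plate scaled between vehicle and 100 µmol/L benzalkonium chloride controls, sDSS an adapted area-under-curve metric.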
Compound,selective drug sensitivity score (P30-OHKUBO),selective drug sensitivity score (COG-LL-355h),selective drug sensitivity score (TMD5),selective drug sensitivity score (TANOUE),selective drug sensitivity score (MN-60),selective drug sensitivity score (COG-LL-319h),selective drug sensitivity score (CCRF-HSB2),selective drug sensitivity score (MOLT-16),selective drug sensitivity score (PEER),selective drug sensitivity score (LC4-1),selective drug sensitivity score (SUP-B15),selective drug sensitivity score (ALL-PO),selective drug sensitivity score (JURKAT),selective drug sensitivity score (KASUMI-9),selective drug sensitivity score (HAL-01),selective drug sensitivity score (SEM cells),selective drug sensitivity score (COG-LL-317),selective drug sensitivity score (MHH-CALL-4),selective drug sensitivity score (KOPN-8),selective drug sensitivity score 697
C1=N/C2=N/c3ccc(OCCN4CCCC4)c(c3)COC/C=C/COCc3cccc(c3)C(=C1)N2 [Pacritinib] (top concentration 10000 nM),1.2,2.9,-9.2,-8.4,-9.6,0,-3.5,-5.6,-5.6,-5.6,-3.7,-0.4,-8,-0.9,-0.6,1.5,-8.3,-5.3,-4.7,-2.6
Cc1[nH]c2ccccc2c1CCNCc1ccc(/C=C/C(=O)NO)cc1 [Panobinostat] (top concentration 1000 nM),6.64,4.84,2.74,-6.56,-1.46,14.2,5.24,9.04,4.34,5.84,10.2,6.14,1.04,11.7,-3.26,3.94,6.34,4.94,18.2,7.64
Cc1ccc(Nc2nccc(N(C)c3ccc4c(C)n(C)nc4c3)n2)cc1S(N)(=O)=O [Pazopanib] (top concentration 10000 nM),5.14,-1.26,4.54,-1.26,-0.86,0.74,4.34,1.94,2.84,5.24,-0.96,-1.06,2.84,3.64,-0.16,4.54,-1.26,-1.26,5.64,4.94
Nc1nc2[nH]cc(CCc3ccc(C(=O)N[C@@H](CCC(=O)O)C(=O)O)cc3)c2c(=O)[nH]1 [Pemetrexed] (top concentration 10000 nM),26.4,4.28,-0.72,-0.72,11.6,27.3,28.2,28.4,15.5,21,28,30.9,15.6,18.6,20.8,25.6,25.1,15.2,30.2,28.3
Cc1ccc(C(=O)Nc2ccc(CN3CCN(C)CC3)c(C(F)(F)F)c2)cc1C#Cc1cnc2cccnn12 [Ponatinib] (top concentration 1000 nM),9.02,5.52,19,-3.78,-0.58,10.3,34.4,6.62,18.6,0.32,31.8,14.1,1.42,5.42,8.42,19.4,-1.98,4.72,27.1,6.62
C[C@]12C=CC(=O)C=C1CC[C@@H]1[C@@H]2[C@@H](O)C[C@@]2(C)[C@H]1CC[C@]2(O)C(=O)CO [Prednisolone] (top concentration 10000 nM),15,20.6,4.8,-2.8,-3,16.2,9.3,3.5,-3,8.4,28.1,28.9,-2.1,2,-2.6,2.9,2.6,25.5,22.6,17.8
CC(C)(C)c1cc(NC(=O)Nc2ccc(-c3cn4c(n3)sc3cc(OCCN5CCOCC5)ccc34)cc2)no1 [Quizartinib] (top concentration 1000 nM),0.68,-1.02,-1.52,-1.52,-1.52,5.48,-0.12,1.88,-0.02,4.78,0.38,14.1,-1.52,-0.02,3.18,20.7,-0.02,-1.52,7.58,0.98
Nc1cc(F)ccc1NC(=O)/C=C/c1cnn(C/C=C/c2ccccc2)c1 [RGFP966] (top concentration 10000 nM),14,4.84,8.54,-0.26,3.04,17.5,15.9,18.2,10.2,12.2,18,3.64,11.2,13.5,12.7,18.7,16.6,2.94,11.5,13.2
CNC(=O)c1cc(Oc2ccc(NC(=O)Nc3ccc(Cl)c(C(F)(F)F)c3)c(F)c2)ccn1 [Regorafenib] (top concentration 10000 nM),4.04,6.74,2.74,4.44,1.34,1.84,6.14,3.34,7.64,6.74,9.14,7.14,4.04,2.04,2.04,10,2.54,2.74,10.9,7.94
CN(C)Cc1ccc(S(=O)(=O)n2ccc(/C=C/C(=O)NO)c2)cc1 [Resminostat] (top concentration 10000 nM),7.94,6.04,0.34,-4.16,2.34,12.2,2.24,4.54,8.24,4.54,9.74,6.34,1.34,10.2,1.84,8.64,5.14,7.04,10.1,7.74
COc1cc(OC)c(/C=C/S(=O)(=O)Cc2ccc(OC)c(NCC(=O)O)c2)c(OC)c1 [Rigosertib] (top concentration 10000 nM),16.9,4.16,8.16,-5.04,8.96,4.96,14.6,18.8,15.9,16.6,14.6,11.2,14.4,18.3,14.5,17.3,14.3,8.26,18.4,17
COc1ccc(CCc2nc3cc(-c4c(C)noc4C)ccc3n2C[C@H](C)N2CCOCC2)cc1Cl [SGC-CBP30] (top concentration 25000 nM),1.88,9.88,-2.62,-3.12,2.78,16.4,2.38,6.58,4.08,7.48,6.28,4.38,2.18,5.58,3.98,6.48,5.98,1.68,6.18,2.48
CCS(=O)(=O)c1cccc(-c2cc(C(=O)NC3CCN(C)CC3)c(C)c3[nH]c4ncc(C)cc4c23)c1 [TAK-901] (top concentration 1000 nM),12.8,6.16,7.16,-4.74,-2.64,10.5,13.6,12.6,12.4,10.8,11,7.76,1.86,10.8,-2.74,9.36,11.7,3.16,10.8,12.8
Nc1nc(NC2CC2)cc(-c2cccc(Cl)c2Cl)n1 [TH588] (top concentration 25000 nM),4.02,2.42,-0.28,-0.58,-0.58,3.82,8.42,16.3,12,8.72,7.62,10.5,15.2,7.92,-0.58,8.62,7.72,-0.58,7.22,8.72
CC(=O)Nc1ccc(C(=O)Nc2ccccc2N)cc1 [Tacedinaline] (top concentration 1000 nM),2.58,-0.02,10.6,-0.02,-0.02,1.98,2.98,-0.02,0.68,1.18,4.58,-0.02,0.68,4.38,9.18,4.08,-0.02,9.18,15.5,1.88
Cn1ncnc1[C@H]1c2n[nH]c(=O)c3cc(F)cc(c23)N[C@@H]1c1ccc(F)cc1 [Talazoparib] (top concentration 1000 nM),9.68,8.28,-1.52,-4.92,-4.92,21.3,7.68,19.1,-3.72,3.18,20.1,4.78,-0.22,8.98,6.58,0.78,19.7,10.2,27.5,15.8
COc1cccc2c1c(O)c(C(=O)N(C)c1ccc(C(F)(F)F)cc1)c(=O)n2C [Tasquinimod] (top concentration 10000 nM),-0.42,-0.42,-0.42,1.58,-0.22,16.6,2.38,-0.42,-0.32,-0.42,2.78,-0.32,-0.42,-0.42,-0.42,-0.42,0.28,0.68,-0.42,-0.42
Nc1nc2[nH]cnc2c(=S)[nH]1 [Thioguanine] (top concentration 10000 nM),11.6,4.04,-3.46,5.54,10,18.6,14.7,15.2,13.1,12.4,19.2,11.2,12.4,11.2,9.44,13,23,4.34,13.2,8.84
